Assay results as given in PMC7834738 (Molecular Therapy, 2020).
“Also recorded” adds a separate entry of the source.

Columns and labels:
SARS-CoV-2 [1] = settings: single agent; cited from earlier work
[2] = system: SARS-CoV-2 (USA_WA1/2020); assay type: cell-based
Vero E6 cells = assay type: cell-based
SARS-CoV-2 [3] = settings: cited from earlier work
COVID-19 = settings: 392 participants, outpatient setting; cited from earlier work
[4] = healthy adults; cited from earlier work

Structure (SMILES): CCN(CC)Cc1cc(Nc2ccnc3cc(Cl)ccc23)ccc1O [Amodiaquine]
- fold less potent in Calu-3 (TMPRSS2+) than in Vero E6 (SARS-CoV-2 [1]): > 10 fold
- antagonism against GS-441524 [2]: not
- concentrations that significantly antagonized against remdesivir [2]: 0.625 to 5 µM
- interaction with nitazoxanide in CPE assay [2]: notable synergism
- interaction with remdesivir at high concentrations [2]: synergize
- interaction with remdesivir in CPE assay [2]: strong antagonistic effect; also recorded: antagonize

Structure (SMILES): CCOC(=O)c1c(CSc2ccccc2)n(C)c2cc(Br)c(O)c(CN(C)C)c12 [Arbidol]
- concentrations showing antagonism against remdesivir [2]: 123 to 370 nM
- concentrations synergizing with remdesivir [2]: 3 to 10 µM
- interaction with remdesivir in CPE assay [2]: antagonize

Structure (SMILES): N#C[C@@]1(c2ccc3c(N)ncnn23)O[C@H](CO)[C@@H](O)[C@H]1O [GS-441524]
- CPE [2]: ≈ 0

Structure (SMILES): OC(c1cc(C(F)(F)F)nc2c(C(F)(F)F)cccc12)C1CCCCN1 (centres unmarked) [Mefloquine]
- antagonism against GS-441524 [2]: not
- concentrations that significantly antagonized against remdesivir [2]: 0.625 to 1.25 µM
- interaction with remdesivir at high concentrations [2]: synergize
- interaction with remdesivir in CPE assay [2]: strong antagonistic effect; also recorded: antagonize

Structure (SMILES): CC(=O)Oc1ccccc1C(=O)Nc1ncc([N+](=O)[O-])s1 [Nitazoxanide]
- cytotoxicity (Vero E6 cells): not cytotoxic
- toxicity to Vero E6 cells (Vero E6 cells): ~20%
- IC50 (SARS-CoV-2 [3]): ~2 µM
- efficacy with respect to 7-day viral load and symptom resolution (COVID-19): modest efficacy
- tolerability [4]: well tolerated
- nitazoxanide concentrations with complete rescue of CPE [2]: 0.625 to 5 µM

Structure (SMILES): CCOC(=O)C1=C[C@@H](OC(CC)CC)[C@H](NC(C)=O)[C@@H](N)C1 [Oseltamivir phosphate]
- antagonism with remdesivir [2]: no antagonism

Structure (SMILES): CCC(CC)COC(=O)[C@H](C)N[P@](=O)(OC[C@H]1O[C@@](C#N)(c2ccc3c(N)ncnn23)[C@H](O)[C@@H]1O)Oc1ccccc1 [Remdesivir]
- CPE [2]: ≈ 0
- interaction with nitazoxanide in CPE assay [2]: notable synergism
